Assay results: article PMC10616419 (The Journal of Biological Chemistry, 2023)
pEC50, pKd: −log10 of the molar value. Several values for one entry are separate records, joined by “and”; a condition that tells them apart may be missing. Equal entries are not always repeated. Where two headings read alike, the source gives them in different places.

Legend:
[1] = biological target: T1, YYYA concatemer rat TRPV1 (single Y511A mutant binding site) (Rattus norvegicus, UniProt O35433, Y511A); type: cell-based
T1 construct: expressed in transfected cells; host or cells: TSA201 (HEK293T) cells, transient transfection; excised inside-out patches
T1 sequence (O35433 whole entry, stated change not applied): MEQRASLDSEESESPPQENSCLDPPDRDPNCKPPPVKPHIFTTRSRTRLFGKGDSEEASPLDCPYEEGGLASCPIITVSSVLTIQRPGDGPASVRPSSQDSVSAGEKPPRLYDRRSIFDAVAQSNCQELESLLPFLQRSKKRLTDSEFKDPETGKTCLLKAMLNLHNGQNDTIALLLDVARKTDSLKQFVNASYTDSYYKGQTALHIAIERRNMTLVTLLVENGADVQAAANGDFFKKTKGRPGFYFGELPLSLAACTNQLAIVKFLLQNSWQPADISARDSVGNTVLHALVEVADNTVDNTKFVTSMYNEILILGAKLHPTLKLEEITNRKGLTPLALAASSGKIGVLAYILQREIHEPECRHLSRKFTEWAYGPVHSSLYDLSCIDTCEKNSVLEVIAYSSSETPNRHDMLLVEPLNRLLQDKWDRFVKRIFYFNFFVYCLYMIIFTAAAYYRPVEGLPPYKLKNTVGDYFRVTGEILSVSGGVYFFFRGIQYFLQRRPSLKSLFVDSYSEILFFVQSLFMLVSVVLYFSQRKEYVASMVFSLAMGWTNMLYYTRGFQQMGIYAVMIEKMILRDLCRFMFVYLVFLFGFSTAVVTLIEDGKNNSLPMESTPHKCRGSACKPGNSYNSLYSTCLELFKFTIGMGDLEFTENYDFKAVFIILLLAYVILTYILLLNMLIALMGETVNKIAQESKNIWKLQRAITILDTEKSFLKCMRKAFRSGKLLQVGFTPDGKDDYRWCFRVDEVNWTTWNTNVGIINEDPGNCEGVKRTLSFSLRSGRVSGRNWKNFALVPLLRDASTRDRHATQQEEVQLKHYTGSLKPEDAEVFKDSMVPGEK
T1 sequence (O35433 whole entry, stated change not applied): as above
T1 sequence (O35433 whole entry, stated change not applied): as above
T1 sequence (O35433 whole entry Y511A): as the sequence (O35433 whole entry, stated change not applied) above, with Y511A counted along it

[2] = biological target: T2, YYAA concatemer rat TRPV1 (two Y511A mutant subunits) (Rattus norvegicus, UniProt O35433, Y511A); type: cell-based
T2 construct: expressed in transfected cells; host or cells: TSA201 (HEK293T) cells, transient transfection; excised inside-out patches
T2 sequence (O35433 whole entry, stated change not applied): as the sequence (O35433 whole entry, stated change not applied) above
T2 sequence (O35433 whole entry, stated change not applied): as above
T2 sequence (O35433 whole entry Y511A): as the sequence (O35433 whole entry, stated change not applied) above, with Y511A counted along it
T2 sequence (O35433 whole entry Y511A): as the sequence (O35433 whole entry, stated change not applied) above, with Y511A counted along it

[3] = biological target: T3, Y511A mutant subunit of rat TRPV1 (YYYA and YYAA concatemers) (Rattus norvegicus, UniProt O35433, Y511A); type: cell-based
T3 construct: expressed in transfected cells; host or cells: TSA201 (HEK293T) cells, transient transfection
T3 sequence (O35433 whole entry Y511A): as the sequence (O35433 whole entry, stated change not applied) above, with Y511A counted along it
T3 sequence (O35433 whole entry partner): as the sequence (O35433 whole entry, stated change not applied) above

wildtype mouse TRPV1 = biological target: T4, wildtype mouse TRPV1 (Mus musculus, UniProt Q704Y3); assay: cell-based; type: cell-based
T4 construct: expressed in transfected cells; host or cells: TSA201 (HEK293T) cells, transient transfection
T4 sequence (Q704Y3 whole entry): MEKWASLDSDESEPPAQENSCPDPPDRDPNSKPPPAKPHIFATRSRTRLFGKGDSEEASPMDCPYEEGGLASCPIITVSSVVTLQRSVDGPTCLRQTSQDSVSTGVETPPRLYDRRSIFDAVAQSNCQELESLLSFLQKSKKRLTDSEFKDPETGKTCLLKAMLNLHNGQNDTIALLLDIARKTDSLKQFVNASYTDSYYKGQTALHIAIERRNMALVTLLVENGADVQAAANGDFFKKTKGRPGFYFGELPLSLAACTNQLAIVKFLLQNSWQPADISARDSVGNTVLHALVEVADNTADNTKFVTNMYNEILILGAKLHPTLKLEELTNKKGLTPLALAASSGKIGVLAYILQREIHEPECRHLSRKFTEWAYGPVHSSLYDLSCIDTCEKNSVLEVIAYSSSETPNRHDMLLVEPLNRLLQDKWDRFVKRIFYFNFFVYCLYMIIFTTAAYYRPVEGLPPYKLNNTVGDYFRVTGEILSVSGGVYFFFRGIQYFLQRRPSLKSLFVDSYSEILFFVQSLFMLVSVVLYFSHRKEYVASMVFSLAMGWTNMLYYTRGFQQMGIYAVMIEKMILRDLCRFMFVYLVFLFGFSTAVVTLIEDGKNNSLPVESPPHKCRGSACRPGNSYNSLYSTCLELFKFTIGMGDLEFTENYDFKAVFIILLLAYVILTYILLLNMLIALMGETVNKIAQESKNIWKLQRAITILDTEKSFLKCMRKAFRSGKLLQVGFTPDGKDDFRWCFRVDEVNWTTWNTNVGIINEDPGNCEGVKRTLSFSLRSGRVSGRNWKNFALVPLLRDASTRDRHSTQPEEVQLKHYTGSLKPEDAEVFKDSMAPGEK

Y512A mutant mouse TRPV1 [4] = biological target: T5, Y512A mutant mouse TRPV1 (Mus musculus, UniProt Q704Y3, Y512A); assay: cell-based; type: cell-based
T5 construct: expressed in transfected cells; host or cells: TSA201 (HEK293T) cells, transient transfection
T5 sequence (Q704Y3 whole entry Y512A): as the sequence (Q704Y3 whole entry) above, with Y512A counted along it

TRPV1 [5] = type: cell-based
TRPV1 [6] = conditions: cited from earlier work
[7] = biological target: T1, YYYA concatemer rat TRPV1 (single Y511A mutant binding site); conditions: cited from earlier work
TRPV1 [8] = biological target: TRPV1 (Rattus norvegicus, UniProt O35433); conditions: cited from earlier work
Chain of TRPV1 (Rattus norvegicus, UniProt O35433) (O35433 whole entry): as the sequence (O35433 whole entry, stated change not applied) above

TRPV1 [9] = biological target: TRPV1 (Rattus norvegicus, UniProt O35433, Y511A); conditions: cited from earlier work
Chain of TRPV1 (Rattus norvegicus, UniProt O35433, Y511A) (O35433 whole entry Y511A): as the sequence (O35433 whole entry, stated change not applied) above, with Y511A counted along it

[10] = tested on: Y511A mutant subunit of rat TRPV1 (YYYA and YYAA concatemers); type: cell-based
[11] = biological target: T6, wildtype (Y) subunit of rat TRPV1 concatemers (Rattus norvegicus, UniProt O35433); type: cell-based
T6 construct: expressed in transfected cells; host or cells: TSA201 (HEK293T) cells, transient transfection
T6 sequence (O35433 whole entry): as the sequence (O35433 whole entry, stated change not applied) above

[12] = biological target: T7, Y511A (A) mutant subunit of rat TRPV1 concatemers (Rattus norvegicus, UniProt O35433, Y511A); type: cell-based
T7 construct: expressed in transfected cells; host or cells: TSA201 (HEK293T) cells, transient transfection
T7 sequence (O35433 whole entry Y511A): as the sequence (O35433 whole entry, stated change not applied) above, with Y511A counted along it

Y512A mutant mouse TRPV1 [13] = biological target: T5, Y512A mutant mouse TRPV1; conditions: cited from earlier work

In the case of 6′-iodo-RTX [6′-iRTX], the “channel activation with three molecules bound” value [1] was “barely activated”, the “L2, equilibrium constant before capsaicin” value [2] was 0.01 and the “L2, equilibrium constant before capsaicin application” value [2] was 0.008. For the same compound, the L [3] was 0.01, the “L with three prebound 6′-iRTX” value [3] was 0.02 and the “L with two prebound 6′-iRTX” value [3] was 0.02. The binding reversibility (wildtype mouse TRPV1) was “binds irreversibly”, the “channel activity produced on perfusion” value (wildtype mouse TRPV1) was “weak channel activities” and the binding reversibility (Y512A mutant mouse TRPV1 [4]) was “could be washed off”. The agonist type (TRPV1 [5]) was “weak agonist” and the agonist type (TRPV1 [6]) was “weak partial agonist”.
With NCCOB(c1ccccc1)c1ccccc1 [2-APB, 2-aminoethoxydiphenyl borate] the “activation after perfusing 6′-iRTX” value (wildtype mouse TRPV1) was “could still activate these channels”.
With C=C(C)[C@]12C[C@@H](C)[C@@]34O[C@](Cc5ccccc5)(O[C@@H]1[C@@H]3C=C(COC(=O)Cc1ccc(O)c(OC)c1)C[C@]1(O)C(=O)C(C)=C[C@@H]41)O2 [RTX, resiniferatoxin] the “L2, equilibrium constant before capsaicin” value [2] was 0.97, the “L2, equilibrium constant before capsaicin application” value [2] was 0.96 and the “initial Po level with wildtype binding sites preloaded” value [2] was “approximately 50%”. The L [3] was 0.96, the “L with two prebound RTX” value [3] was 0.94 and the agonist type (TRPV1 [5]) was “full agonist”. The “Po with three RTX molecules bound” value [7] was “approximately 99%”, the binding reversibility (TRPV1 [8]) was “binds irreversibly” and the binding reversibility (TRPV1 [9]) was “can be washed off”.
In the case of COc1cc(CNC(=O)CCCC/C=C/C(C)C)ccc1O [capsaicin], the Hill slope [1] was 0.96, the Hill slope [2] was 0.88 and the “Po reached on application of capsaicin” value [2] was ~100%. For the same compound, the “a factor (cooperativity between the two capsaicin binding steps; 0.25 = independent)” value [2] was 0.27, the cooperative factor f [2] was 8.9 and 11.8 and the cooperative factor f [3] was 12.1 and 8.9. The “capsaicin association constant K” value [10] was 49000 M⁻¹, the cooperative factor f [10] was 8.0 and the KY [11] was 2.4e+06 M⁻¹. The fA [12] was 12.9, the pEC50 (wildtype mouse TRPV1) was 6.96 and the pKd (wildtype mouse TRPV1) was 6.61. The “activation after perfusing 6′-iRTX” value (wildtype mouse TRPV1) was “lost its activation effect”, the “slope factor (Hill function)” value (wildtype mouse TRPV1) was 1.3 and the pEC50 (Y512A mutant mouse TRPV1 [4]) was 4.66. The pKd (Y512A mutant mouse TRPV1 [4]) was 4.28, the “slope factor (Hill function)” value (Y512A mutant mouse TRPV1 [4]) was 2.3 and the pEC50 (Y512A mutant mouse TRPV1 [13]) was 4.89.
